# Results taken from PubChem BioAssay (NCI).
#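 These data come from cells grown in 96-well plates and exposed to compound for 48 hours at five concentrations. The concentration for 50% growth inhibition is given as GI50. The concentration for full growth arrest is given as TGI.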
# Assays:
# Test in all cases: growth of human tumour cells (NCI), 48 h
# NCI/ADR-RES ovarian = test system: NCI/ADR-RES ovarian
# UACC-257 melanoma = test system: UACC-257 melanoma
# HCC-2998 colon = test system: HCC-2998 colon
# A549 NSCLC = test system: A549 NSCLC
# PC-3 prostate = test system: PC-3 prostate
# BT-549 breast = test system: BT-549 breast
# MOLT-4 leukemia = test system: MOLT-4 leukemia
# RPMI-8226 leukemia = test system: RPMI-8226 leukemia
# NCI-H226 lung = test system: NCI-H226 lung
# SF-295 CNS = test system: SF-295 CNS
# A498 renal = test system: A498 renal
# UO-31 renal = test system: UO-31 renal
# CAKI-1 renal = test system: CAKI-1 renal
# CCRF-CEM leukemia = test system: CCRF-CEM leukemia
# T-47D breast = test system: T-47D breast
# K-562 leukemia = test system: K-562 leukemia
# SK-MEL-5 melanoma = test system: SK-MEL-5 melanoma
# OVCAR-8 ovarian = test system: OVCAR-8 ovarian
# SNB-19 CNS = test system: SNB-19 CNS
# COLO 205 colon = test system: COLO 205 colon
# M14 melanoma = test system: M14 melanoma
# NCI-H522 lung = test system: NCI-H522 lung
# NCI-H23 lung = test system: NCI-H23 lung
# HS 578T breast = test system: HS 578T breast
# TK-10 renal = test system: TK-10 renal
# SF-268 CNS = test system: SF-268 CNS
# OVCAR-3 ovarian = test system: OVCAR-3 ovarian
# HCT-116 colon = test system: HCT-116 colon
# OVCAR-4 ovarian = test system: OVCAR-4 ovarian
# RXF 393 renal = test system: RXF 393 renal
# SR leukemia = test system: SR leukemia
# OVCAR-5 ovarian = test system: OVCAR-5 ovarian
# HOP-92 NSCLC = test system: HOP-92 NSCLC
# SK-MEL-28 melanoma = test system: SK-MEL-28 melanoma
# MDA-MB-435 = test system: MDA-MB-435
# 786-0 renal = test system: 786-0 renal
# SK-OV-3 ovarian = test system: SK-OV-3 ovarian
# HCT-15 colon = test system: HCT-15 colon
# SN12C renal = test system: SN12C renal
# MDA-MB-231 breast = test system: MDA-MB-231 breast
# IGROV1 ovarian = test system: IGROV1 ovarian
# HOP-62 NSCLC = test system: HOP-62 NSCLC
# KM12 colon = test system: KM12 colon
# DU-145 prostate = test system: DU-145 prostate
# SW-620 colon = test system: SW-620 colon
# EKVX NSCLC = test system: EKVX NSCLC
# MCF7 breast = test system: MCF7 breast
# LOX IMVI melanoma = test system: LOX IMVI melanoma
# MALME-3M melanoma = test system: MALME-3M melanoma
# U251 CNS = test system: U251 CNS
# UACC-62 melanoma = test system: UACC-62 melanoma
# NCI-H460 lung = test system: NCI-H460 lung
# SK-MEL-2 melanoma = test system: SK-MEL-2 melanoma
# SNB-75 CNS = test system: SNB-75 CNS
# HT29 colon = test system: HT29 colon
# SF-539 CNS = test system: SF-539 CNS
# HL-60(TB) leukemia = test system: HL-60(TB) leukemia
# ACHN renal = test system: ACHN renal
smiles,measurement,setting,value
CN1CCN(Cc2ccc(NC(=O)c3cncc(C#Cc4cnc5ccc(O[C@H]6CCOC6)nn45)c3)cc2C(F)(F)F)CC1,GI50,NCI/ADR-RES ovarian,1120 nM
same,TGI,NCI/ADR-RES ovarian,3100 nM
same,GI50,UACC-257 melanoma,653 nM
same,TGI,UACC-257 melanoma,1380 nM
same,GI50,HCC-2998 colon,341 nM
same,TGI,HCC-2998 colon,964 nM
same,GI50,A549 NSCLC,475 nM
same,TGI,A549 NSCLC,1450 nM
same,GI50,PC-3 prostate,720 nM
same,TGI,PC-3 prostate,2280 nM
same,GI50,BT-549 breast,375 nM
same,TGI,BT-549 breast,783 nM
same,GI50,MOLT-4 leukemia,289 nM
same,TGI,MOLT-4 leukemia,2720 nM
same,GI50,RPMI-8226 leukemia,815 nM
same,TGI,RPMI-8226 leukemia,2740 nM
same,GI50,NCI-H226 lung,123 nM
same,TGI,NCI-H226 lung,1040 nM
same,GI50,SF-295 CNS,748 nM
same,TGI,SF-295 CNS,1510 nM
same,GI50,A498 renal,871 nM
same,TGI,A498 renal,1590 nM
same,GI50,UO-31 renal,270 nM
same,TGI,UO-31 renal,853 nM
same,GI50,CAKI-1 renal,226 nM
same,TGI,CAKI-1 renal,744 nM
same,GI50,CCRF-CEM leukemia,305 nM
same,TGI,CCRF-CEM leukemia,4760 nM
same,GI50,T-47D breast,934 nM
same,TGI,T-47D breast,2210 nM
same,GI50,K-562 leukemia,5 nM
same,TGI,K-562 leukemia,544 nM
same,GI50,SK-MEL-5 melanoma,716 nM
same,TGI,SK-MEL-5 melanoma,1400 nM
same,GI50,OVCAR-8 ovarian,675 nM
same,TGI,OVCAR-8 ovarian,1540 nM
same,GI50,SNB-19 CNS,1210 nM
same,TGI,SNB-19 CNS,3240 nM
same,GI50,COLO 205 colon,227 nM
same,TGI,COLO 205 colon,828 nM
same,GI50,M14 melanoma,97.5 nM
same,TGI,M14 melanoma,280 nM
same,GI50,NCI-H522 lung,562 nM
same,TGI,NCI-H522 lung,1320 nM
same,GI50,NCI-H23 lung,245 nM
same,TGI,NCI-H23 lung,1000 nM
same,GI50,HS 578T breast,555 nM
same,TGI,HS 578T breast,1590 nM
same,GI50,TK-10 renal,484 nM
same,TGI,TK-10 renal,1130 nM
same,GI50,SF-268 CNS,593 nM
same,TGI,SF-268 CNS,1420 nM
same,GI50,OVCAR-3 ovarian,591 nM
same,TGI,OVCAR-3 ovarian,1290 nM
same,GI50,HCT-116 colon,45.6 nM
same,TGI,HCT-116 colon,212 nM
same,GI50,OVCAR-4 ovarian,490 nM
same,TGI,OVCAR-4 ovarian,1340 nM
same,GI50,RXF 393 renal,681 nM
same,TGI,RXF 393 renal,1440 nM
same,GI50,SR leukemia,284 nM
same,TGI,SR leukemia,1440 nM
same,GI50,OVCAR-5 ovarian,381 nM
same,TGI,OVCAR-5 ovarian,1210 nM
same,GI50,HOP-92 NSCLC,55.1 nM
same,TGI,HOP-92 NSCLC,275 nM
same,GI50,SK-MEL-28 melanoma,410 nM
same,TGI,SK-MEL-28 melanoma,1110 nM
same,GI50,MDA-MB-435,159 nM
same,TGI,MDA-MB-435,705 nM
same,GI50,786-0 renal,187 nM
same,TGI,786-0 renal,397 nM
same,GI50,SK-OV-3 ovarian,848 nM
same,TGI,SK-OV-3 ovarian,1760 nM
same,GI50,HCT-15 colon,385 nM
same,TGI,HCT-15 colon,1400 nM
same,GI50,SN12C renal,307 nM
same,TGI,SN12C renal,1060 nM
same,GI50,MDA-MB-231 breast,174 nM
same,TGI,MDA-MB-231 breast,850 nM
same,GI50,IGROV1 ovarian,177 nM
same,TGI,IGROV1 ovarian,818 nM
same,GI50,HOP-62 NSCLC,505 nM
same,TGI,HOP-62 NSCLC,1280 nM
same,GI50,KM12 colon,5 nM
same,TGI,KM12 colon,725 nM
same,GI50,DU-145 prostate,521 nM
same,TGI,DU-145 prostate,1180 nM
same,GI50,SW-620 colon,177 nM
same,TGI,SW-620 colon,871 nM
same,GI50,EKVX NSCLC,623 nM
same,TGI,EKVX NSCLC,1350 nM
same,GI50,MCF7 breast,149 nM
same,TGI,MCF7 breast,752 nM
same,GI50,LOX IMVI melanoma,186 nM
same,TGI,LOX IMVI melanoma,743 nM
same,GI50,MALME-3M melanoma,97.6 nM
same,TGI,MALME-3M melanoma,438 nM
same,GI50,U251 CNS,575 nM
same,TGI,U251 CNS,1280 nM
same,GI50,UACC-62 melanoma,488 nM
same,TGI,UACC-62 melanoma,1160 nM
same,GI50,NCI-H460 lung,341 nM
same,TGI,NCI-H460 lung,962 nM
same,GI50,SK-MEL-2 melanoma,431 nM
same,TGI,SK-MEL-2 melanoma,1120 nM
same,GI50,SNB-75 CNS,295 nM
same,TGI,SNB-75 CNS,795 nM
same,GI50,HT29 colon,194 nM
same,TGI,HT29 colon,826 nM
same,GI50,SF-539 CNS,171 nM
same,TGI,SF-539 CNS,771 nM
same,GI50,HL-60(TB) leukemia,194 nM
same,TGI,HL-60(TB) leukemia,692 nM
same,GI50,ACHN renal,396 nM
same,TGI,ACHN renal,1040 nM
